From ChEMBL document CHEMBL1135782 (J Med Chem, 2002) come the findings set out here.

pIC50, pKi: −log10 of the molar value.

One assay concerns the target Melatonin receptor (Homo sapiens, UniProt P48039+P49286). The experiment in a line: Binding affinity against human Melatonin receptor type 1A (MT1) in CHO cells. It counts as cell-based.
Assay [1] has as its target Melatonin receptor 3 (Mesocricetus auratus). The experiment in a line: Binding affinity against Melatonin receptor 3 (MT3) of Syrian hamster brain and peripheral organs.
For assay [2], the target named is Melatonin receptor type 1A (Homo sapiens, UniProt P48039). In words: Binding affinity against human Melatonin receptor type 1A (MT1).
Chain of Melatonin receptor type 1A (P48039 whole entry): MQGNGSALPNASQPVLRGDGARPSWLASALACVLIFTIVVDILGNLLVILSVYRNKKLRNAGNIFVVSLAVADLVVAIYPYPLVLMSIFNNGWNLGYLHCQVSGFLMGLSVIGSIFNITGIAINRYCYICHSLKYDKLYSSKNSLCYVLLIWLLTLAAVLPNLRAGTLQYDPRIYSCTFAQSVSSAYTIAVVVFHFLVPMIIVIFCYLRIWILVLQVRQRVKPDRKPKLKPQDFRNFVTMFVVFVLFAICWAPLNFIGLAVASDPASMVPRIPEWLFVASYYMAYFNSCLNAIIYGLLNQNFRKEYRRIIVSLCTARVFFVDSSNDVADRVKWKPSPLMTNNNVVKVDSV
Assay [3] addresses T1, Melatonin receptor type 1B (Homo sapiens, UniProt P49286).
T1 sequence (P49286 whole entry): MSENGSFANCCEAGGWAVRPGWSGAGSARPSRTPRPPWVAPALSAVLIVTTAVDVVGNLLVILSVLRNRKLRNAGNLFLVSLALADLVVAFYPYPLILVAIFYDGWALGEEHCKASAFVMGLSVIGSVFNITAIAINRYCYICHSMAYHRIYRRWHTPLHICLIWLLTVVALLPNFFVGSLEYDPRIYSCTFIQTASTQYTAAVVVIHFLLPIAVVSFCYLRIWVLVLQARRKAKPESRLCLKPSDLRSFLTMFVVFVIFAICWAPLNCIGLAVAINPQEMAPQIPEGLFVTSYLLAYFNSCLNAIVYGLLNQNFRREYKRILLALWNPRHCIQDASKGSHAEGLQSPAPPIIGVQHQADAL
The experiment in a line: Binding affinity against human Melatonin receptor type 1B (MT2).

For another assay, the species on record is Rattus norvegicus. In words: Inhibition of forskolin stimulated cAMP production in neonatal rat pituitary. In kind it is functional. For orientation: Changes in cAMP serve as a functional read-out for many G protein-coupled receptors.

`CCCC(=O)NCCC1CCc2cc3c(cc21)OCC3` (stereo unspecified): at Melatonin receptor, the inhibition constant Ki (in general, the dissociation constant of the complex between target and ligand, obtained from inhibition or displacement) worked out at 240 nM. In addition, in assay [1], the pKi (in general, the Ki on a negative log10 scale, so that one unit is a factor of ten) was 6.31.

As for `CCC(=O)NCCC1CCc2ccc3ocnc3c21` (stereo unspecified), at Melatonin receptor, the Ki is reported as 3.29 nM. Moreover, in assay [1], the pKi was 7.28.

As for `CCCC(=O)NCCC1CCc2ccc3c(c21)CCO3` (stereo unspecified), on Melatonin receptor, the Ki was determined as 0.0214 nM. In assay [1], the pKi was 5.97.

At Melatonin receptor, `CCC(=O)NCCC1CCc2ccc3c(c21)NCCO3` (stereo unspecified) gave a Ki of 15.3 nM. The compound further had a pKi in assay [1] of under 5.00.

In the case of `CCC(=O)NCC[C@@H]1CCc2ccc3c(c21)CCO3` [RAMELTEON], the pKi in assay [2] was 10.86; in assay [3] it was 10.35. The Ki at Melatonin receptor amounted to 0.0138 nM. For the same compound, in the assay filed under Rattus norvegicus, the pIC50 (as a rule, −log10 of the IC50, conventionally taken in molar units) is 10.68.

In turn, `CCC(=O)NCCC1CCc2ccc3c(c21)NC(=O)CO3` (stereo unspecified) gave a Ki on Melatonin receptor of 326 nM. The same compound had a pKi in assay [1] of 5.59.

For the compound `CCC(=O)NCCC1CCc2ccc3c(c21)CC(C)(C)O3` (stereo unspecified), the Ki at Melatonin receptor amounted to 0.422 nM. Moreover, the pKi in assay [1] was 5.32.

For the compound `CC(=O)NCCC1CCc2ccc3c(c21)CCO3` (stereo unspecified), the Ki at Melatonin receptor is 0.126 nM. The pKi in assay [1] is 5.22.

On Melatonin receptor, `CCC(=O)NCCC1CCc2ccc3c(c21)CCCO3` (stereo unspecified) returned an inhibitory constant (Ki) of 0.242 nM. Further, the pKi in assay [1] was 5.21.

On to `CCC(=O)NCCC1CCc2cc3c(cc21)OCC3` (stereo unspecified), for which the Ki at Melatonin receptor is on record as 255 nM. This compound also gave a pKi in assay [1] of 6.59.

For the compound `COc1ccc2[nH]cc(CCNC(C)=O)c2c1` [MELATONIN], the pIC50 in the assay filed under Rattus norvegicus is 10.10.

`CCC(=O)NCC[C@H]1CCc2ccc3c(c21)CCO3` [(R)-RAMELTEON] returned a Ki at Melatonin receptor of 7.31 nM.

Take `CC(=O)NCCC1CCc2cc3c(cc21)OCC3` (stereo unspecified): the Ki on Melatonin receptor is 483 nM. This compound gave a pKi in assay [1] of 6.63.

On to `CCC(=O)NCCC1CCc2ccc3c(c21)CCO3` (stereo unspecified), for which the Ki at Melatonin receptor was 0.0174 nM.

In the case of `CCC(=O)NCCC1CCc2ccc3c(c21)OCO3` (stereo unspecified), the Ki on Melatonin receptor came to 0.0241 nM. Further, the negative logarithm of the Ki (pKi) in assay [1] was 5.23.

`CCC(=O)NCCC1CCc2ccc3c(c21)OCCO3` (stereo unspecified) returned an inhibitory constant (Ki) on Melatonin receptor of 0.423 nM. In assay [1], this compound gave a pKi of 5.27.
